Measured values published in US10532081B2, “Method of ameliorating or preventing the worsening or the progression of symptoms of BPH” (Nymox Corporation, priority 2016, dated 2020).
Marks after values point to notes of the source that are not given here.

System: Patients with BPH
Assay: Double-blind clinical study: intraprostatic injection in patients with BPH, symptoms evaluated by International Prostate Symptom Score (IPSS)
Type: in vivo, human
From the text: The International Prostate Symptom Score (I-PSS) is based on the answers to seven questions concerning urinary symptoms and one question concerning quality of life. Each question concerning urinary symptoms allows the patient to choose one out of six answers indicating increasing severity of the particular symptom. The answers are assigned points from 0 to 5. The total score can therefore range from 0 to 35 (asymptomatic to very symptomatic). The questions refer to the following urinary symptoms:
Patients with BPH were given an intraprostatic injection of either a) SEQ ID NO. 66 (Ile-Asp-Gln-Gln-Val-Leu-Ser-Arg-Ile-Lys-Leu-Glu-Ile-Lys-Arg-Cys-Leu) in phosphate buffered saline pH 7.2 (“PBS”) or b) PBS alone, under double-blind conditions by a urologist in an office setting under ultrasound guidance. Patients were followed for 1 to 6 years with regular physical examinations, laboratory tests, and evaluations of symptoms. Symptomatic evaluation was measured by the International Prostate Symptom Score (IPSS) which is a quantitative scale used to gauge prostatic symptomatic improvement or worsening. The IPSS quantifies the following: 1) incomplete bladder emptying after urination; 2) frequent urination; 3) stopping and starting during urination; 4) urgent need to urinate; 5) weakness of urinary stream; 6) need to push or strain during urination; 7) need to urinate after going to sleep at night (nocturia). The difference from baseline IPSS was compared in all patients who were given an intraprostatic injection of SEQ ID NO. 66 to the difference from baseline IPSS in patients who received PBS alone. […] 66 treated patients, there was also an unexpected decrease in the incidence of worsening and progression in symptoms in patients treated with SEQ ID NO. 66.
Patients with BPH were given an intraprostatic injection of either a) SEQ ID NO. 66 in phosphate buffered saline pH 7.2 (“PBS”) or b) PBS alone, under double-blind conditions by a urologist in an office setting under ultrasound guidance. Subsequently, 326 placebo and SEQ ID NO. 66 treated subjects were administered an intraprostatic injection of SEQ ID NO. 66 (2.5 mg). Patients were followed for 1 to 6 years with physical examinations, laboratory tests, and evaluations of symptoms. Symptomatic evaluation was measured by the International Prostate Symptom Score (IPSS) which is a quantitative scale used to gauge prostatic symptomatic improvement or worsening. The IPSS quantifies the following: 1) incomplete bladder emptying after urination; 2) frequent urination; 3) stopping and starting during urination; 4) urgent need to urinate; 5) weakness of urinary stream; 6) need to push or strain during urination; 7) need to urinate after going to sleep at night (nocturia). The difference from baseline IPSS was compared in placebo patients who subsequently received SEQ ID NO. 66 vs results in patients who received PBS alone. […] 66 treated patients there was also an unexpected decrease in the incidence of worsening or lack of improvement in symptoms in patients treated with SEQ ID NO. 66.
Patients with BPH were given an intraprostatic injection of either a) SEQ ID NO. 66 in phosphate buffered saline pH 7.2 (“PBS”) or b) PBS alone, under double-blind conditions by a urologist in an office setting under ultrasound guidance. Subsequently, 326 subjects were given an intraprostatic injection of SEQ ID NO. 66 (2.5 mg). Symptomatic evaluation was measured by the International Prostate Symptom Score (IPSS) which is a quantitative scale used to gauge prostatic symptomatic improvement or worsening. The IPSS quantifies the following: 1) incomplete bladder emptying after urination; 2) frequent urination; 3) stopping and starting during urination; 4) urgent need to urinate; 5) weakness of urinary stream; 6) need to push or strain during urination; 7) need to urinate after going to sleep at night (nocturia). […]

## IDQQVLSRIKLEIKRCL [SEQ ID NO: 66, NTP peptide Ile-Asp-Gln-Gln-Val-Leu-Ser-Arg-Ile-Lys-Leu-Glu-Ile-Lys-Arg-Cys-Leu, injected intraprostatically in phosphate buffered saline pH 7.2]
Example 1: all patients given one intraprostatic injection of SEQ ID NO. 66 in PBS, followed 1 to 6 years, p < .02 vs PBS alone
  Percentage of worsening of IPSS: 13.1%*
Example 2: placebo patients who subsequently received intraprostatic SEQ ID NO. 66 (2.5 mg), followed 1 to 6 years, p < 0.0001 vs PBS alone
  Percentage of worsening of IPSS or no improvement in IPSS: 17.3%*
Example 3: patients who received two intraprostatic injections of SEQ ID NO. 66 (second 2.5 mg), p < 0.0001 vs PBS alone
  Percentage of worsening of IPSS or no improvement in IPSS: 17.6%*
Example 4: all placebo and SEQ ID NO. 66 treated patients subsequently given intraprostatic SEQ ID NO. 66 (2.5 mg), followed 1 to 6 years, p < .0001 vs PBS alone
  Percentage of worsening of IPSS or no improvement of IPSS: 17.5%*
Example 5: placebo patients who subsequently received intraprostatic SEQ ID NO. 66 (2.5 mg), followed 1 to 6 years, p < 0.0001 vs PBS alone
  Percentage of worsening of IPSS: 9.0%*
Example 6: patients who received SEQ ID NO. 66 and subsequently SEQ ID NO. 66 (2.5 mg) intraprostatic, followed 1 to 6 years, p < 0.05 vs PBS alone
  Percentage of worsening of IPSS: 13.5%*
Example 7: all placebo and SEQ ID NO. 66 treated patients subsequently given intraprostatic SEQ ID NO. 66 2.5 mg, followed 1 to 6 years, p < .0001 vs PBS alone
  Percentage of worsening of IPSS: 11.7%*
Example 8: patients given one intraprostatic injection of SEQ ID NO. 66 in PBS, followed 1 to 6 years, p < .003 vs PBS alone
  Percentage of worsening of IPSS or no improvement of IPSS: 36.4%*
SEQ ID NO. 66 patients subsequently treated with SEQ ID NO. 66 (two injections)
  improvement of symptoms (difference from baseline IPSS) compared to PBS alone: more improvement
All placebo and SEQ ID NO. 66 treated patients subsequently treated with SEQ ID NO. 66 (2.5 mg)
  improvement of symptoms (difference from baseline IPSS) compared to PBS alone: more improvement
One intraprostatic injection of SEQ ID NO. 66, followed 1 to 6 years
  improvement of symptoms (difference from baseline IPSS) compared to PBS alone: more improvement
Placebo patients subsequently treated with SEQ ID NO. 66 (2.5 mg)
  improvement of symptoms (difference from baseline IPSS) compared to PBS alone: more improvement
